We go through three compounds from patent US8552035B2, “Phenanthrenone compounds, compositions and methods” (Pfizer Inc., priority 2008, dated 2013).

One data set concerns IL-6. The data set can be described thus: LPS-induced human whole blood, IL-6 release. The class given is cell-based. As to conditions: mean of donors.
A further data set has as its system TNFα. The data set can be described thus: LPS-induced human whole blood, TNFα release. The class given is cell-based. As to conditions: for inhibition at 0.00137174 µM: 1.371742 nM; for inhibition at 0.00411523 µM: 4.115226 nM; for inhibition at 0.0123457 µM: 12.34568 nM; for inhibition at 0.037037 µM: 37.03704 nM; for inhibition at 0.111111 µM: 111.1111 nM; for inhibition at 0.333333 µM: 333.3333 nM; for inhibition at 1 µM: 1000 nM. As for the experimental part: (§1) Venous blood from human donors was collected as 10 ml aliquots in tubes containing sodium heparin (BD Vacutainer from Becton Dickinson and Company, Franklin Lakes, N.Y.). Blood was added to sterile polystyrene round bottom 96-well tissue culture plates (Corning Costar) at 180 Blood was placed in a humidified 37 C incubator with 5% CO2 while compounds were prepared (nearly 60 minutes).
(§2) Compounds were prepared from 10 mM stock solutions in dimethylsulfoxide (DMSO, Sigma-Aldrich). Stock compound was diluted in DMSO to give appropriate starting concentration then diluted serially 1/3 in DMSO (i.e. 15 μl compound+30 μl DMSO), followed by diluting each serial dilution 1/167 into vehicle solution (2% DMSO in phosphate buffered saline (Dulbecco's Phosphate Buffered Saline without calcium chloride without magnesium chloride, Invitrogen Corporation, Carlsbad Calif.)). Compound or vehicle was added to blood in 10 μl aliquots as triplicates, omitting the outside wells to minimize possible edge effects. The final highest concentration of each compound in the assay ranged from 3 to 0.3 μM. Final DMSO concentration in the assay was 0.1%. The plate containing the samples was gently vortexed to mix and replaced in the incubator. LPS stock (E. coli serotype 0111:B4, Sigma-Aldrich), stored in aliquots of 100 μg/ml in RPMI at −20° C., was diluted […] in RPMI to make a working stock solution. After 60 minutes of incubation, 10 μl of the prepared LPS working stock was added to the blood to a final concentration of 100 ng/ml. Wells to be used as negative control received RPMI media with no LPS. The plate was again gently vortexed and the plates incubated overnight for 22 hours. Following incubation, the blood was centrifuged at 1500×g for 5 minutes and the plasma removed to either freeze at −20° C. or assay for cytokine release.
(§3) IL-1β, IFNγ and TNFα protein levels were measured using Meso Scale assay kits (Meso Scale Discovery, Gaithersburg, Md., U.S.A.). Reagents were allowed to come to room temperature. Meso Scale plates were blocked with 150 μl of Meso Scale Block B diluent, gently shaking at room temperature for 60 minutes. Plates were washed 3× with wash buffer (PBS, Invitrogen Corporation, with 0.05% Tween-20, Sigma-Aldrich). Calibrators for standard curves were prepared in human plasma/serum assay diluent as a 1/5 serial dilution to achieve final concentrations ranging from 50000 pg/ml to 3.2 pg/ml. Samples were added at 10 to 20 μl/well and calibrators were added at 20 μl/well then incubated at room temperature with gentle shaking for 2 hours. Plates were again washed 3× with wash buffer. Detection antibody was diluted in human plasma/serum antibody diluent to 1 μg/ml and added to the plate at 20 μl/well. Plates were incubated as before for 2 hours and washed again. Read Buffer T (4×) was diluted 1:1 with mqH20 to 2× concentration and 150 μl added to each well. Plates were read on the SECTOR Imager 6000 (Meso Scale Discovery) to generate raw signal values.
(§4) Individual sample signal values were compared to positive and negative controls (vehicle treated blood with LPS and vehicle treated blood without LPS, respectively) to generate % inhibition. Triplicate values were averaged for each donor. The values for three or four donors were averaged and graphed using 4-parameter fit curves in the LabStats plug-in for the Microsoft Excel application.

The test system of a further data set is IFNγ. Nature of the data set: LPS-induced human whole blood, IFNγ release. The following applies: for inhibition at 0.00137174 µM: 1.371742 nM; for inhibition at 0.00411523 µM: 4.115226 nM; for inhibition at 0.0123457 µM: 12.34568 nM; for inhibition at 0.037037 µM: 37.03704 nM; for inhibition at 0.111111 µM: 111.1111 nM; for inhibition at 0.333333 µM: 333.3333 nM; for inhibition at 1 µM: 1000 nM. The class given is cell-based. On the procedure:
as §1, §2, §3, §4

The subject of another data set is IL-1β. Nature of the data set: LPS-induced human whole blood, IL-1β release. As to conditions: for inhibition at 0.00137174 µM: 1.371742 nM; for inhibition at 0.00411523 µM: 4.115226 nM; for inhibition at 0.0123457 µM: 12.34568 nM; for inhibition at 0.037037 µM: 37.03704 nM; for inhibition at 0.111111 µM: 111.1111 nM; for inhibition at 0.333333 µM: 333.3333 nM; for inhibition at 1 µM: 1000 nM. The class given is cell-based. As for the experimental part: as §1, §2, §3, §4

A further data set relates to osteocalcin. Nature of the data set: 28-day mouse side-effect model, serum osteocalcin suppression. The class given is in vivo. As to conditions: oral gavage 28 days. On the procedure:
(§5) 10-12 week old female Swiss Webster mice (Taconic, Germantown, N.Y., U.S.A.) weighing 27-29 grams are used in accordance with the guidelines of the Institutional Animal Care and Use Committee and in accordance with NIH guidelines on laboratory animal welfare. Mice are acclimated to the Pfizer animal facility for 3-7 days prior to being placed on study. Prednisolone and DAGR compounds are administered by oral gavage for a total of 28 days. Each treatment group generally contains 8-10 mice. To establish a dosing regimen for the studies, a pilot pharmacodynamic time course experiment is conducted to quantify TNFa repression after a single ED80 dose (determined from the acute LPS endotoxemia mouse model). […] DAGR compounds vary in their required frequency of doses.
(§6) Body weights are measured on the first and last day of each experiment. Blood samples are obtained after ˜3 weeks of dosing for steady-state pharmacokinetic analysis. To assess compound effects on LPS-induced TNF-a, all mice receive an intraperitoneal injection of LPS (Salmonella Typhosa, Sigma, St. Louis, L-7895) 2.5 hr after the last dose on day 28. Mice are sacrificed 90 min. after LPS administration. Serum samples are assayed for osteocalcin and TNFa using the Linco multiplex assay (St. Charles, Mo.) and Luminex 100 (Austin, Tex.). Samples are diluted 1:20 and the assay is run according to manufacturer's instructions. An osteocalcin standard is purchased separately from Biomedical Technologies Incorporated (Stoughton, Mass.). Serum insulin is measured to assess compound effects on insulin resistance. Insulin was measured using the UltraSensitive Mouse EIA kit from Alpco Diagnostics (Salem, N.H.) following the manufacturer's protocol.
(§7) ED50 and ED80 values are obtained for the various parameters using four-parameter logistic fits of data. For each experiment/dose group, outliers are detected by calculating the number of standard deviations each mouse's value was from the mean of their group and then dividing by the standard deviation of the group. The means and standard deviations used in this calculation omitted the value being examined so that, if it were an outlier, it would have no influence. If the value being examined is more than 2.5 standard deviations from the mean, it was not used in the rest of the calculations.
(§8) Percent inhibition values are then calculated for each animal using the means of the vehicle and 10 mpk prednisone control groups. The individual mouse percent inhibition values are then fit to a four-parameter logistic model using the area under curve mean for each group. Since all four parameters are estimated and the lower plateau is not fixed at 0% and the upper plateau was not fixed at 100%, the ED50 and ED80 values are calculated by using an inverse calibration formula for a response equal to 50% or 80%. The designation “nd” means not determined.

A further data set deals with serum insulin. The data set can be described thus: 28-day mouse side-effect model, serum insulin. The class given is in vivo. The following applies: oral gavage 28 days. On the procedure:
as §5, §6, §7, §8

The test system of a further data set is LPS-induced TNFα. Nature of the data set: 28-day mouse side-effect model, LPS-induced serum TNFα suppression. The class given is in vivo. As to conditions: oral gavage 28 days, LPS challenge. As for the experimental part: as §5, §6, §7, §8
Where [1] appears, read: Homo sapiens, 3000 nM, mean of donors.
Setting [2] is: Homo sapiens, 0.457247 nM, mean of donors.
[3] abbreviates: ex vivo LPS-stimulated human whole blood, extent of inhibition, concentration not given.

For the compound `Cc1ncccc1CNC(=O)c1ccc2c(c1)CC[C@@H]1C[C@@](O)(CCC(F)(F)F)CC[C@@]21Cc1ccccc1` [Comparator A, (4βS,7S,8αR)-4β-benzyl-7-hydroxy-N-((2-methylpyridin-3-yl)methyl)-7-(3,3,3-trifluoropropyl)-4β,5,6,7,8,8α,9,10-octahydrophenanthrene-2-carboxamide], the inhibition (commonly the change of the read-out against control, counted positive when it falls) at 0.00137174 µM in the data set with IL-6 (1.371742 nM) came to 1.46%; in the data set with TNFα (Homo sapiens, mean of donors) it was 18.1%; in the data set with IFNγ (Homo sapiens, mean of donors), 18.1%; in the data set with IL-1β (Homo sapiens, mean of donors) it was 32%. Besides, the inhibition at 0.00411523 µM in the data set on IL-6 (4.115226 nM) is -4.34%; in the data set with TNFα (Homo sapiens, mean of donors), -0.861%; with IFNγ (Homo sapiens, mean of donors) it was -1.7%; in the data set with IL-1β (Homo sapiens, mean of donors) it was 22%. For the same compound, the inhibition at 0.0123457 µM in the data set with IL-6 (12.34568 nM) was -1.13%; in the data set on TNFα (Homo sapiens, mean of donors) it was 0.0309%; with IFNγ (Homo sapiens, mean of donors), 0.016%; with IL-1β (Homo sapiens, mean of donors) it was 22.8%. The inhibition at 0.037037 µM with IL-6 (37.03704 nM) is -3.52%; with TNFα (Homo sapiens, mean of donors), -4.19%; in the data set on IFNγ (Homo sapiens, mean of donors), -9.81%; in the data set with IL-1β (Homo sapiens, mean of donors), 17.3%. In addition, the inhibition at 0.111111 µM is -3.5% in the data set with IL-6 (111.1111 nM); -3.82% with TNFα (Homo sapiens, mean of donors); 8.74% with IFNγ (Homo sapiens, mean of donors); 8.6% with IL-1β (Homo sapiens, mean of donors). For the same compound, the inhibition at 0.333333 µM in the data set on IL-6 (333.3333 nM) is -2.83%; in the data set on TNFα (Homo sapiens, mean of donors), -4.61%; in the data set with IFNγ (Homo sapiens, mean of donors), -6.32%; in the data set with IL-1β (Homo sapiens, mean of donors), 12.2%. The inhibition at 1 µM in the data set with IL-6 (1000 nM) was -0.89%; in the data set with TNFα (Homo sapiens, mean of donors) it was -5.44%; with IFNγ (Homo sapiens, mean of donors), 16.5%; in the data set with IL-1β (Homo sapiens, mean of donors), 15%. In addition, the inhibition at 3 µM is -1.97% in the data set with IL-6 (3000 nM), -3.04% in the data set with TNFα (setting [1]), 28% in the data set on IFNγ (setting [1]) and 16.4% in the data set with IL-1β (setting [1]).

Regarding `Cc1nc(Br)ccc1NC(=O)c1ccc2c(c1)CC[C@@H]1C[C@@](O)(c3ccccc3)[C@](C)(O)C[C@@]21Cc1ccccc1` [Comparator B, (4bR,6R,7R,8aR)-4b-benzyl-N-(6-bromo-2-methylpyridin-3-yl)-6,7-dihydroxy-6-methyl-7-phenyl-4b,5,6,7,8,8a,9,10-octahydrophenanthrene-2-carboxamide], the median effective dose (ED50) (as a rule, the dose at which the effect has come halfway, by size or by number of responders) at 28 days in the data set with osteocalcin (female, Swiss Webster, read-out: Osteocalcin Suppression (ED50 dose)) came to 0.21 mg/kg; in the data set with serum insulin (female, Swiss Webster, read-out: Insulin (ED50 dose)), 1.04 mg/kg. The “Osteocalcin Suppression (ED80 dose)” value in the data set with osteocalcin was 0.97. Moreover, the “Insulin (ED80 dose)” value in the data set with serum insulin turned out to be 7.58. Moreover, the median effective dose (ED50) in the data set with LPS-induced TNFα (672 h, read-out: TNFα Suppression (ED50 dose)) came out at 0.083 mg/kg. The “TNFα Suppression (ED80 dose)” value in the data set on LPS-induced TNFα came to 0.45.

On to `C[C@]12C=CC(=O)C=C1CC[C@@H]1[C@@H]2[C@@H](O)C[C@@]2(C)[C@H]1CC[C@]2(O)C(=O)CO` [Prednisolone], for which the inhibition at 0.000457247 µM in the data set with TNFα (setting [2]) stood at 2.76%. Moreover, in the data set with TNFα (Homo sapiens, mean of donors), the inhibition at 0.00137174 µM is 6.36%, the inhibition at 0.00411523 µM amounted to 8.95%, the inhibition at 0.0123457 µM stood at 19.6% and the inhibition at 0.037037 µM came out at 49.2%. In the data set on TNFα (Homo sapiens, mean of donors), the inhibition at 0.111111 µM was 67.1%, the inhibition at 0.333333 µM stood at 86.9% and the inhibition at 1 µM came to 90.4%. The “level of inhibition of TNF” value in the data set with TNFα (setting [3]) is on record as “full inhibition”. Besides, the inhibition at 0.000457247 µM in the data set with IFNγ (setting [2]) was 1.19%. In the data set with IFNγ (Homo sapiens, mean of donors), the inhibition at 0.00137174 µM was determined as 9.75%, the inhibition at 0.00411523 µM came out at 25.2%, the inhibition at 0.0123457 µM came out at 34.7% and the inhibition at 0.037037 µM worked out at 70.7%. In addition, in the data set with IFNγ (Homo sapiens, mean of donors), the inhibition at 0.111111 µM is 85.2%, the inhibition at 0.333333 µM came out at 94.8% and the inhibition at 1 µM was 96.4%. Besides, the “level of inhibition of IFN” value with IFNγ (setting [3]) is reported as “full inhibition”. Also, the inhibition at 0.000457247 µM in the data set with IL-1β (setting [2]) is -0.571%. In the data set with IL-1β (Homo sapiens, mean of donors), the inhibition at 0.00137174 µM was -1.26%, the inhibition at 0.00411523 µM is 0.84%, the inhibition at 0.0123457 µM turned out to be 7.17% and the inhibition at 0.037037 µM amounted to 36.7%. In the data set on IL-1β (Homo sapiens, mean of donors), the inhibition at 0.111111 µM was 61.9%, the inhibition at 0.333333 µM amounted to 87.6% and the inhibition at 1 µM came to 91.8%. Moreover, in the data set with IL-1β (setting [3]), the “level of inhibition of IL-1” value is reported as “full inhibition”.
